Several values for one entry are separate records, joined by “and”; a condition that tells them apart may be missing. Identical values can stand only once. Entries after “also recorded” stand apart in the source; their conditions may differ.
Columns and labels:
[1] = system: Helicobacter pylori-producing toxin VacA; assay: Serum anti-s1 m1 VacA IgG (ELISA) in Helicobacter pylori-infected mice; format: in vivo, C57BL/6 mice; details: SAC1 and SAC2 groups (200 and 400 mg/kg SAC)
Method: S-allyl-L-Cysteine (SAC) was purchased from TCI Chemical Co. (Tokyo, Japan). Helicobacter pylori was American Type Culture Collection (ATCC) 43504 (cagA+, vacA s1-ml type) and cultured in a Mueller Hinton-Agar broth at 37° C. for 48 hours, under 5% CO2 microaerophilic conditions with a concentration of 1×10^9 CFU/ml.
(§1) 8-week old male C57BL/6 mice were classified into 4 groups, i.e., a positive control group (to which Helicobacter pylori was administered; PC), a negative control group (to which saline was administered; NC), experimental group 1 (to which Helicobacter pylori and 200 mg/kg of SAC were administered; SAC1), and experimental group 2 (to which Helicobacter pylori and 400 mg/kg of SAC were administered; SAC2). Each group had 10 mice. White powdered SAC was diluted in tap water to concentrations of 20 mg/mL and 40 mg/mL and 10 μl/g (body weight) of the diluted SAC was orally administered to the mice of the SAC1 and SAC2 groups three times a week for 10 weeks. The mice were given free access to tap water for the entire test period. […]
Enzyme-linked immunosorbent assay (ELISA) was used in order to identify the effect of SAC on serum anti-Helicobacter pylori antibody-formation capability. […] 100 μl of 0.2 M sulfuric acid was added thereto to terminate the reaction and absorbance was measured at 450 nm.

Helicobacter pylori = assay: Serologic parameters (GOT, GPT) in Helicobacter pylori-infected mouse model; format: in vivo, C57BL/6 mice; details: SAC1 and SAC2 groups
Method: as §1, with “period. The Helicobacter pylori was collected with saline to a concentration of 1×10^9 CFU/mL, and 0.2 mL of the diluted Helicobacter pylori was orally administered to each mouse for 8 weeks from 2 weeks after SAC administration. The mice were fasted for 8 hours before the infection, and 0.15 mL of 0.2 M sodium bicarbonate (NaHCO3) was administered to each mouse 10 minutes before the administration of Helicobacter pylori in order to neutralize acidified stomach due to the fasting. The same amount of saline instead of the infectious substances was administered into the NC group. The mice of all groups were fed with a normal diet.” for “period.”

[2] = system: gastric lesions of rats induced by indomethacin; assay: Indomethacin-induced gastric lesion animal model; format: in vivo, Sprague-Dawley rats
From the text: SAC was purchased from TCI Chemical Co. (Tokyo, Japan). Sterile water for injection (Model No. 73H5F21, Dae Han Pharmaceutical Co. Ltd.) was used as a vehicle, and Stillen® was used as a positive control material. 0.5% CMC-Na and sterile water for injection were used as excipients for Stillen®. Hydrochloric acid was purchased from Samjung Chemical, Co., ethanol was purchased from Baker, Co., aspirin was purchased from Sigma, Co., and indomethacin was purchased from Sigma, Co.
7 to 8-week old male specific pathogen free (SPF) HsdKoat:Sprague-Dawley®™ SD®™rats (weight of 7-week old males was in the range of 208.44 to 227.39 g, and weight of 8-week old maleswas in the range of 223.85 to 245.03 g, purchased from Koatech, Co. Ltd., Gyunggido, Korea) were quarantined and acclimated in the Animal Lab for 7 days. The rats were bred at a temperature of 23 3° C., at a relative humidity of 55 15%, with light for 12 hours (light turned on at 08:00 and light turned off at 20:00) while air was ventilated 10 to 20 times/hr in the Animal Experiment Lab of Gyeonggi Bio-Center. Other environments for breeding which might influence the test for the entire test period were not considered for use. The rats were given free access to a solid laboratory diet (Harlan Co. Ltd., USA. Teklad certified global 18% protein rodent diet, 2918C) that was supplied by Folas International. […] The rats were given free access to tap water that was sterilized using a UV sterilizer and a micro filter with water bottles.
The rats were classified into a vehicle control group G1 to which only a vehicle was administered, a experimental group G2 to which 100 mg/kg of SAC was administered, a experimental group G3 to which 200 mg/kg of SAC was administered, a experimental group G4 to which 400 mg/kg of SAC was administered, and a positive control group G5 to which 100 mg/kg of Stillen® (55.6 mg/kg as an active ingredient) as a positive control material were administered. Each group included 8 rats in a hydrochloric acid-ethanol-induced animal model (Experiment Example 7) and included 6 rats in an aspirin-induced animal model (Experimental Example 8) and in an indomethacin-induced animal model (Experimental Example 9).
The test substance was directly administered to the stomach using an injection tube equipped with a sonde for oral administration in a single dose once per day.
The rats were fasted for more than 24 hours in a normal environment, SAC was administered, and 25 mg/kg of indomethacin in distilled water was orally administered after 30 minutes. After six hours from the indomethacin administration, the rats were sacrificed under ether anesthesia and their stomachs including parts of the duodenum and esophagus were isolated. The stomachs were fixed for 10 minutes by injecting 12 ml of 2% formalin, the greater curvature of each stomach was incised and unfolded, photographs of the lesions were taken, and then the areas of the lesions were measured using an image analyzer.
The gastric lesion inhibiting rate (%) was calculated in the same manner as in Experimental Example 8.

## C=CCSC[C@H](N)C(=O)O [SAC, S-allyl-L-cysteine]
[1]
  production of antibody against VacA (anti-s1 m1 VacA IgG): inhibited in the same manner as in the anti-H. pylori IgG
Helicobacter pylori; not significantly different
  serum GPT level versus PC group: less than that of the PC group; also recorded: less than the positive control group
Helicobacter pylori; not significantly different (p<0.08)
  serum GOT level versus PC group: less than that of the PC group; also recorded: less than the positive control group
[2]; 200 mg/kg and 400 mg/kg SAC
  gross finding of stomach: light gastric lesions and no bleedings
[2]; G2: 100 mg/kg SAC
  Ulcer area of individual animal (Animal number 1-6): 1.3 and 1.6 and 1.5 and 9.4 and 2.3
[2]; G2: 100 mg/kg SAC oral, 30 min before 25 mg/kg indomethacin
  Ulcer Area (mm^2), group mean: 3.2±3.47 mm^2 and 3.2 mm^2
[2]; G3: 200 mg/kg SAC
  Ulcer area of individual animal (Animal number 1-6): 0.0 and 0.3 and 0.9 and 0.6 and 0.7 and 0.4
[2]; G3: 200 mg/kg SAC, n = 6
  Ulcer Area (mm^2), group mean: 0.5±0.30 mm^2 and 0.5 mm^2
[2]; G4: 400 mg/kg SAC
  Ulcer area of individual animal (Animal number 1-6): 0.8 and 0.4 and 0.1 (2×) and 0.2 and 1.0
[2]; G4: 400 mg/kg SAC, n = 6
  Ulcer Area (mm^2), group mean: 0.4±0.36 mm^2 and 0.4 mm^2
[2]; highest rate over SAC doses
  gastric lesion inhibiting rate (%) up to: about 94%

From patent publication US20140024716A1, “Composition Comprising S-Allyl-L-Cysteine as Active Ingredient for Preventing or Treating Gastrointestinal Disorders” (PHARMAKING CO., LTD., priority 2009, published 2014)
